This assay relates to MCh depressor responses. The experiment in a line: Methacholine-induced depressor responses in conscious guinea pigs. Type of assay: in vivo, guinea pig. The note with it: inhalation.

Experimental findings from patent publication US7456199B2, “Biphenyl compounds useful as muscarinic receptor antagonists” (Theravance, Inc., priority 2004, dated 2008) are described below.

Text: Healthy, adult, male Sprague-Dawley guinea pigs (Harlan, Indianapolis, Ind.), weighing between 200 and 300 g were used in these studies. Under isoflurane anesthesia (to effect), animals were instrumented with common carotid artery and jugular vein catheters (PE-50 tubing). The catheters were exteriorized utilizing a subcutaneous tunnel to the subscapular area. All surgical incisions were sutured with 4-0 Ethicon Silk and the catheters locked with heparin (1000 units/mL). Each animal was administered saline (3 mL, SC) at the end of surgery as well as buprenorphine (0.05 mg/kg, IM). Animals were allowed to recover on a heating pad before being returned to their holding rooms.
Approximately 18 to 20 hours following surgery, the animals were weighed and the carotid artery catheter on each animal was connected to a transducer for recording arterial pressure. Arterial pressure and heart rate was recorded using a Biopac MP-100 Acquisition System. Animals were allowed to acclimate and stabilize for a period of 20 minutes.
Each animal was challenged with MCh (0.3 mg/kg, IV) administered through the jugular venous line and the cardiovascular response was monitored for 10 minutes. […] At 1.5 and 24 h post-dosing, the animals were re-challenged with MCh (0.3 mg/kg, IV) and the hemodynamic response was determined. […]

For the molecule `O=C(CCN1CCC(OC(=O)Nc2ccccc2-c2ccccc2)CC1)Nc1ccc(CNCc2ccc(O)cc2)cc1` [Example 1, Biphenyl-2-ylcarbamic Acid 1-(2-{4-[(4-Hydroxybenzylamino)methyl]phenylcarbamoyl}ethyl)piperidin-4-yl Ester], the “apparent lung-selectivity index (ratio of anti-depressor ID50 to bronchoprotective ID50)” value is “greater than 5”.
